Test results taken from patent EP2766361B1, “8-CARBAMOYL-2-(2,3-DISUBSTITUTED PYRID-6-YL)-1,2,3,4-TETRAHYDROISOQUINOLINE DERIVATIVES AS APOPTOSIS-INDUCING AGENTS FOR THE TREATMENT OF CANCER AND IMMUNE AND AUTOIMMUNE DISEASES” (priority 2011, dated 2013).

These compounds were tested on mouse FL5.12 cells transfected with Bcl-xL (assay: FL5.12 cellular assay (cell viability, CellTiter-Glo)). Conditions: IL-3-depleted, 3% FBS assay media, 24 hours, read-out: FL5.12 Bcl-xL, -IL3, EC50.
Assay type: cell-based
Protocol: Cell viability was assayed using the CellTiter-Glo assay (Promega Corp., Madison, WI) according to the manufacturer instructions. Individual determinations were the result of duplicate values. […] Table 2. In Vitro Data

SMILES	EC50
O=C(Nc1nc2ccccc2s1)c1cccc2c1CN(c1ccc(-c3cnn(CC45CC6CC(C4)CC(N4CCS(=O)(=O)CC4)(C6)C5)c3)c(C(=O)O)n1)CC2 [Example 33, 6-[8-(1,3-benzothiazol-2-ylcarbamoyl)-3,4-dihydroisoquinolin-2(1H)-yl]-3-(1-{[3-(1,1-dioxidothiomorpholin-4-yl)tricyclo[3.3.1.1^3,7]dec-1-yl]methyl}-1H-pyrazol-4-yl)pyridine-2-carboxylic acid]	> 1000 nM
Cc1c(-c2ccc(N3CCc4cccc(C(=O)Nc5nc6ccccc6s5)c4C3)nc2C(=O)O)cc(C#N)n1CCC12CC3CC(CC(C3)C1)C2 [Example 34, 6-[8-(1,3-benzothiazol-2-ylcarbamoyl)-3,4-dihydroisoquinolin-2(1H)-yl]-3-{5-cyano-2-methyl-1-[2-(tricyclo[3.3.1.1^3,7]dec-1-yl)ethyl]-1H-pyrrol-3-yl}pyridine-2-carboxylic acid]	150 nM
Cc1c(-c2ccc(N3CCc4cccc(C(=O)Nc5nc6ccccc6s5)c4C3)nc2C(=O)NS(C)(=O)=O)cc(C#N)n1CC12CC3CC(CC(C3)C1)C2 [Example 35, N-(1,3-benzothiazol-2-yl)-2-{5-[5-cyano-2-methyl-1-(tricyclo[3.3.1.1^3,7]dec-1-ylmethyl)-1H-pyrrol-3-yl]-6-[(methylsulfonyl)carbamoyl]pyridin-2-yl}-1,2,3,4-tetrahydroisoquinoline-8-carboxamide]	1 nM
Cc1c(-c2ccc(N3CCc4cccc(C(=O)Nc5nc6ccccc6s5)c4C3)nc2C(=O)NS(=O)(=O)C2CC2)cc(C#N)n1CC12CC3CC(CC(C3)C1)C2 [Example 36, N-(1,3-benzothiazol-2-yl)-2-{5-[5-cyano-2-methyl-1-(tricyclo[3.3.1.1^3,7]dec-1-ylmethyl)-1H-pyrrol-3-yl]-6-[(cyclopropylsulfonyl)carbamoyl]pyridin-2-yl}-1,2,3,4-tetrahydroisoquinoline-8-carboxamide]	0.8 nM
COC12CC3CC(CC(Cn4ncc(-c5ccc(N6CCc7cccc(C(=O)Nc8nc9ccccc9s8)c7C6)nc5C(=O)NS(C)(=O)=O)c4C)(C3)C1)C2 [Example 37, N-(1,3-benzothiazol-2-yl)-2-{5-(1-{[3-methoxytricyclo[3.3.1.1^3,7]dec-1-yl]methyl}-5-methyl-1H-pyrazol-4-yl)-6-[(methylsulfonyl)carbamoyl]pyridin-2-yl}-1,2,3,4-tetrahydroisoquinoline-8-carboxamide]	3 nM
COC12CC3(C)CC(C)(CC(Cn4ncc(-c5ccc(N6CCc7cccc(C(=O)Nc8nc9ccccc9s8)c7C6)nc5C(=O)O)c4C)(C3)C1)C2 [Example 38, 6-[8-(1,3-benzothiazol-2-ylcarbamoyl)-3,4-dihydroisoquinolin-2(1H)-yl]-3-(1-{[3-methoxy-5,7-dimethyltricyclo[3.3.1.1^3,7]dec-1-yl]methyl}-5-methyl-1H-pyrazol-4-yl)pyridine-2-carboxylic acid]	0.1 nM
COC12CC3CC(CC(Cn4ncc(-c5ccc(N6CCc7cccc(C(=O)Nc8nc9ccccc9s8)c7C6)nc5C(=O)NS(=O)(=O)N5CCOCC5)c4C)(C3)C1)C2 [Example 39, N-(1,3-benzothiazol-2-yl)-2-{5-(1-{[3-methoxytricyclo[3.3.1.1^3,7]dec-1-yl]methyl}-5-methyl-1 H-pyrazol-4-yl)-6-[(morpholin-4-ylsulfonyl)carbamoyl]pyridin-2-yl}-1,2,3,4-tetrahydroisoquinoline-8-carboxamide]	0.6 nM
COC12CC3CC(CC(Cn4ncc(-c5ccc(N6CCc7cccc(C(=O)Nc8nc9ccccc9s8)c7C6)nc5C(=O)NS(=O)(=O)C(F)(F)F)c4C)(C3)C1)C2 [Example 40, N-(1,3-benzothiazol-2-yl)-2-[5-(1-{[3-methoxytricyclo[3.3.1.1^3,7]dec-1-yl]methyl}-5-methyl-1H-pyrazol-4-yl)-6-{[(trifluoromethyl)sulfonyl]carbamoyl}pyridin-2-yl]-1,2,3,4-tetrahydroisoquinoline-8-carboxamide]	47 nM
COC12CC3CC(CC(Cn4ncc(-c5ccc(N6CCc7cccc(C(=O)Nc8nc9ccccc9s8)c7C6)nc5C(=O)NS(=O)(=O)C5CC5)c4C)(C3)C1)C2 [Example 41]	0.4 nM
